Reference: patent US20160305970A1, “CELL LINES AND METHODS FOR MAKING AND USING THEM” (Chromocell Corporation, priority 2008, published 2016)

Key:
[1] = molecular target: human GC-C (guanylate cyclase 2C, GUCY2C) (human) (UniProt P25092); experiment: cell-based or functional assay
[2] = tested on: GABAA (α1β3γ2s, α2β3γ2s, α3β3γ2s and α5β3γ2s); experiment: In-cell readout assay using halide-sensitive meYFP, GABAA-meYFP-CHO cells; format: cell-based, human; settings: increasing concentrations of GABA ligand
Procedure: The response of GABAA (subunit combinations of α1β3γ2s (A1), α2β3γ2s (A2), α3β3γ2s (A3) and α5β3γ2s (A5)) expressing CHO cells of the invention to test compounds was evaluated using the following protocol for an in-cell readout assay.
Cells were plated 24 hours prior to assay at 10-25,000 cells per well in 384 well plates in growth media (Ham's F-12 media plus FBS and glutamine). […] The assay plates were then loaded on the FDSS (Hamamatsu Corporation). […] The plates were read for 90 seconds.

[3] = molecular target: T1, GABAA α5β3γ2s (α5) (Homo sapiens, UniProt P18507+P28472+P31644); format: cell-based; settings: CHO cell line α5β3γ2s, membrane potential assay
T1 construct: expressed in transfected cells
T1 sequence (P31644 32-462): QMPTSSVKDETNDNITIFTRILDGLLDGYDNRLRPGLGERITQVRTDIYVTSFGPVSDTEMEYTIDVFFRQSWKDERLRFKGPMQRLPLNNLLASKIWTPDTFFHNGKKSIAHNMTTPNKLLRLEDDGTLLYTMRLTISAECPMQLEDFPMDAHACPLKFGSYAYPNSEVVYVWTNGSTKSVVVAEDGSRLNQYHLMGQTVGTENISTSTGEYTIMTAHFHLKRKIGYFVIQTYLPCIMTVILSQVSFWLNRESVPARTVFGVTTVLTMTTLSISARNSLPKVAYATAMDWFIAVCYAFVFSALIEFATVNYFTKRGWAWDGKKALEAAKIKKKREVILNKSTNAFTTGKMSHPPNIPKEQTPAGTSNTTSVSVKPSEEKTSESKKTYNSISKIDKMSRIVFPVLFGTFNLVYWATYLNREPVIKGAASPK
T1 sequence (P28472 26-473): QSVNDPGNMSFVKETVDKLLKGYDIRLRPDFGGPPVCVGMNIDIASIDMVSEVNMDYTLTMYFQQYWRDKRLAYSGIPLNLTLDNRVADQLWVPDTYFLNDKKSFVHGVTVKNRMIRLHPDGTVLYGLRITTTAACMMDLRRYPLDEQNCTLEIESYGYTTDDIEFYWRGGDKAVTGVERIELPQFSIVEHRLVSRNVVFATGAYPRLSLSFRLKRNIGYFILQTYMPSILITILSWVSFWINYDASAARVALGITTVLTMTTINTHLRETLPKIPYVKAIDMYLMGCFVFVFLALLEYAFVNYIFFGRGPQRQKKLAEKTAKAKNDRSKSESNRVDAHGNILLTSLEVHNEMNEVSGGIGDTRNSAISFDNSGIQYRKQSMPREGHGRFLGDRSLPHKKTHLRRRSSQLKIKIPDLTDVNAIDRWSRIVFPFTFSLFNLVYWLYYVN
T1 sequence (P18507 40-467 isoform P18507-1 limits assumed): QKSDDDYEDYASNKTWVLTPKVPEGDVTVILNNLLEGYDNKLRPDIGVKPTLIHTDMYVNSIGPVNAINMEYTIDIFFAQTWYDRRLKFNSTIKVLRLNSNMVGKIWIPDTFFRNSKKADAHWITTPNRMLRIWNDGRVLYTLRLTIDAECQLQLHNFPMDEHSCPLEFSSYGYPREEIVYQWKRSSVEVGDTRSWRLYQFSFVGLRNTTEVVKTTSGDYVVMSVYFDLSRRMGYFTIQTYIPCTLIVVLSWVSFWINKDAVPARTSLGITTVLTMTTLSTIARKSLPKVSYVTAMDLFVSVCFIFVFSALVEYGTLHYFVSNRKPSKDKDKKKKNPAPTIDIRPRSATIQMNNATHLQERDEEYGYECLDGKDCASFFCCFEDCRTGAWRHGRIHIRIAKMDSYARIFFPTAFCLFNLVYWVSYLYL
Procedure: Cells were plated 24 hours prior to assay at 10-25,000 cells per well in 384 well plates in growth media (Ham's F-12 media plus FBS and glutamine). […] Incubation was for 1 hour, followed by plate loading onto the high throughput fluorescent plate reader (Hamamastu FDSS). […] The plates were read for 90 seconds.

[4] = tested on: human CFTR; experiment: Fluorescence membrane potential assay, stable CFTR-expressing CHO cell line; format: cell-based; settings: stable CFTR-expressing cell line, 15,000 cells/well, 384-well plate
Procedure: Populations of cells were tested using functional criteria. Membrane potential dye kits (Molecular Devices, MDS) were used according to manufacturer's instructions. Cells were tested at varying densities in 384-well plates (i.e., 12.5×10^3 to 20×10^3 cells/per well) and responses were analyzed. Time between cell plating and assay read was tested. Dye concentration was also tested. Dose response curves and Z' scores were both calculated as part of the assessment of potential functionality. CHO cell lines stably expressing CFTR were maintained under standard cell culture conditions in Ham's F12 medium supplemented with 10% fetal bovine serum and glutamine. On the day before assay, the cells were harvested from stock plates and plated into black clear-bottom 384 well assay plates. The assay plates were maintained in a 37° C. cell culture incubator under 5% CO2 for 22-24 hours. […] For forskolin dose-response experiments, cells of the produced stable CFTR-expressing cell lines, plated at a density of 15,000 cells/well in a 384-well plate were challenged with increasing concentration of forskolin, a known CFTR agonist. The cellular response as a function of changes in cell fluorescence was monitored over time by a fluorescent plate reader (Hamamatsu FDSS). […]-1742 (2001)), indicating the potency of the clone.

human GC-C (guanylate cyclase 2C, GUCY2C) (human), sequence (P25092 24-1073): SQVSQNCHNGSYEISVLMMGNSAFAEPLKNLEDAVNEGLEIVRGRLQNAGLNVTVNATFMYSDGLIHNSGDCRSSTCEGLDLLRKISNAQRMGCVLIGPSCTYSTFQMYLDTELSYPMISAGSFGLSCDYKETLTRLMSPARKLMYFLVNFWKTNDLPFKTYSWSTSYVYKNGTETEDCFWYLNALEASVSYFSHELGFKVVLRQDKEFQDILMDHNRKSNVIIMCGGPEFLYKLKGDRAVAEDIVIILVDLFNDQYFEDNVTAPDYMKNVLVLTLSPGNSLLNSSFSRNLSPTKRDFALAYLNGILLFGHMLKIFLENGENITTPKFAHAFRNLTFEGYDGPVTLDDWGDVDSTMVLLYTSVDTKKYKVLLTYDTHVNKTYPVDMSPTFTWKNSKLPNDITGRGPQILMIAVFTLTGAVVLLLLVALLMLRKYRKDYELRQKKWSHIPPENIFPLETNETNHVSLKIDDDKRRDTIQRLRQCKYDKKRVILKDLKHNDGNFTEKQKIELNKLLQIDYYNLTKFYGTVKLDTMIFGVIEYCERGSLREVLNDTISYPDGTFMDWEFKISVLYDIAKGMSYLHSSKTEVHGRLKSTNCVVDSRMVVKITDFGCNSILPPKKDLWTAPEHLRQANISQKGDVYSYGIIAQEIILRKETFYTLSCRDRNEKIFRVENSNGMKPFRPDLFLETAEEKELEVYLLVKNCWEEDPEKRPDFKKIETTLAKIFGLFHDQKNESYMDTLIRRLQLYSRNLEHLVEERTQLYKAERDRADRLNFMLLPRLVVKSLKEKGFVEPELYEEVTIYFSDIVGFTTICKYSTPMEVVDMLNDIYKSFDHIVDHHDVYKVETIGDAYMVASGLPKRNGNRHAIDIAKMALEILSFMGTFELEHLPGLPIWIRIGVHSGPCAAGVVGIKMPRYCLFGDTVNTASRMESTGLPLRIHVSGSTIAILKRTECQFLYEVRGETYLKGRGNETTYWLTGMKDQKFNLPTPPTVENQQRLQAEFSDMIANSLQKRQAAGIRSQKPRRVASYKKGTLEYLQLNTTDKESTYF

How did the EC50 of the cellular response (absorbance as a function of changes in cGMP levels, Direct Cyclic GMP Enzyme Immunoassay Kit) to increasing guanylin [1] turn out when guanylin (peptide) was run?
Its EC50 of the cellular response (absorbance as a function of changes in cGMP levels, Direct Cyclic GMP Enzyme Immunoassay Kit) to increasing guanylin is 1.1 nM.

What about the level of cGMP [1] of the same compound?
Its level of cGMP is 6 pmol/mL.

`NCCCC(=O)O` [GABA] was tested. Which meYFP signal response [2] did it give?
The meYFP signal response was “increasing quench of meYFP signal”.

`COc1cc(/C=C(\C#N)C(=O)c2ccc(O)c(O)c2)cc(I)c1O` [I-OMe Tyrphostin 538] was tested. Which “EC50 Values α5” value [3] did it give?
The value was “α5 Not active”.

With `C=C[C@@]1(C)CC(=O)[C@]2(O)[C@@]3(C)[C@@H](O)CCC(C)(C)[C@@H]3[C@H](O)[C@H](OC(C)=O)[C@@]2(C)O1` [forskolin] as the compound, how does the EC50 [4] read?
The EC50 was 256 nM.
